Source: PMC11945486, “TAS1R2/TAS1R3 Single-Nucleotide Polymorphisms Affect Sweet Taste Receptor Activation by Sweeteners: The SWEET Project” (Nutrients, 2025)
No end group written: not given here.

T1: human TAS1R2-I486V/TAS1R3-WT (Homo sapiens, UniProt Q7RTX0+Q8TE23, I486V)
T1 construct: expressed in transfected cells; host or cells: HEK293T-Gα16gust44
T1 sequence (Q8TE23 20-839 I486V): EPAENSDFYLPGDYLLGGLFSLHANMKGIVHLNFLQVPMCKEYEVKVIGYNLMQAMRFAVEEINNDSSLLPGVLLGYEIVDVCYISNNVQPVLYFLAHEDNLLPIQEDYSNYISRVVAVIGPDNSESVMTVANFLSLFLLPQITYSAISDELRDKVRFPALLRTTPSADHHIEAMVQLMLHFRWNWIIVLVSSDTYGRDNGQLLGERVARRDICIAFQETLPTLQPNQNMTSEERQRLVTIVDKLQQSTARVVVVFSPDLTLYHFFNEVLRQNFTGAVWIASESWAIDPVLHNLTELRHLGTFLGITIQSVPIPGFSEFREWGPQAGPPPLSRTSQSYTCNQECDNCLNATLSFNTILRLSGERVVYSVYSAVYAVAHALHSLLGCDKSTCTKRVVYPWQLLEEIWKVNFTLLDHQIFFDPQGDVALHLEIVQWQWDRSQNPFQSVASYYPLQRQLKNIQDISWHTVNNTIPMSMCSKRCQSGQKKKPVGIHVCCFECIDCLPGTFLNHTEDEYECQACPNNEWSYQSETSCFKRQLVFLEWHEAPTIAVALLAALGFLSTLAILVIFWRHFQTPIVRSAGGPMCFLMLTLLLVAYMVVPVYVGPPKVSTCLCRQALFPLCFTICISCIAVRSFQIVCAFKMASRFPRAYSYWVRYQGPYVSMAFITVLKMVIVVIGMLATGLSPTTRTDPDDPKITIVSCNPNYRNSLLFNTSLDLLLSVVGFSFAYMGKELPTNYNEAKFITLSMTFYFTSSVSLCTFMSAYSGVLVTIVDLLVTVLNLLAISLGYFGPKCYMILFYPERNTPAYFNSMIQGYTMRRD
T1 sequence (Q7RTX0 21-852): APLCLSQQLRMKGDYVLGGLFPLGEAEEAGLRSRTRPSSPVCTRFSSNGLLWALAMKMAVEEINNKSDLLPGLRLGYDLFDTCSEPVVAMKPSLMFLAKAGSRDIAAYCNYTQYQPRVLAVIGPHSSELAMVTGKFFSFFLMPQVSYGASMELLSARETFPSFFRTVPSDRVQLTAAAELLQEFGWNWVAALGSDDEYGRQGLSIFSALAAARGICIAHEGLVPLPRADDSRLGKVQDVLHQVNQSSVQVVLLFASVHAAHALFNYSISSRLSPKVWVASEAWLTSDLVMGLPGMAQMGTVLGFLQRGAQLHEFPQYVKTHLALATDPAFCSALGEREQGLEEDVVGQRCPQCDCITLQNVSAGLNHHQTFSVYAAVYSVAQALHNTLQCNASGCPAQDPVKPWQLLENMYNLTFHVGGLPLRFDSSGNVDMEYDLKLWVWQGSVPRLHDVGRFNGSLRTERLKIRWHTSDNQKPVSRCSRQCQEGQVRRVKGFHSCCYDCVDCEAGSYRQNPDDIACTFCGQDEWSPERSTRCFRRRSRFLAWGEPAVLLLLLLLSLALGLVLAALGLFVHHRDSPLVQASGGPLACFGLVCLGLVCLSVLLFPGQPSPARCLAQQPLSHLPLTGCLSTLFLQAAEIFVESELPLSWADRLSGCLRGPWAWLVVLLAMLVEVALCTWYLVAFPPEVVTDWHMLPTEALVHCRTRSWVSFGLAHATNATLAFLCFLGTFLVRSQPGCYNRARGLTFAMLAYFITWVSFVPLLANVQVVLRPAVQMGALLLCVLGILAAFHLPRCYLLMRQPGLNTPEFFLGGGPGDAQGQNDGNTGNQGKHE


Target: T1, human TAS1R2-I486V/TAS1R3-WT
Test: Calcium mobilisation assay, TAS1R2 variant I486V with TAS1R3-WT
Assay type: cell-based
Conditions: for Max ΔF/F0: maximal signal amplitude
Text: The coding sequences for TAS1R2 and TAS1R3 were commercially synthesised, and the human codon was optimised for expression in human cells. The coding sequences of human TAS1R2 and TAS1R3 were subcloned and inserted into the mammalian expression vectors pcDNA6/myc-HisA and pcDNA4/myc-HisA (Invitrogen; Thermo Fisher Scientific; Illkirch, France) between the EcoRI and NotI restriction sites, generating the plasmids pcDNA6-TAS1R2 and pcDNA4-TAS1R3, respectively. To increase protein expression in mammalian cells, an upstream start codon was used, which was a sequence called MAX, corresponding to the QBI SP163 element also described in pcDNA4-HisMax (Invitrogen; Thermo Fisher Scientific; Illkirch, France). To measure the expression level of the receptor by immunohistochemistry, we used the FLAG sequence ([…]) in the C-terminal position, which encodes the FLAG tag epitope. SNP variants of TAS1R2 and TAS1R3 were constructed based on […], respectively, using site-directed mutagenesis (Genewiz; Leipzig, Germany).
The HEK293T cells were kindly provided by Jay P. Slack (Givaudan Flavors Corporation; Cincinnati, OH, USA). HEK293T cells stably transfected with Gα16gust44 [43, 67] were seeded in poly-D-lysine-coated clear-bottom black 96-well plates (0.35 × 10^5 cells/well) in high-glucose DMEM supplemented with 2 mM GlutaMAX, 10% dialysed foetal bovine serum with penicillin/streptomycin and G418 (400 μg/mL) at 37 °C and 6.3% CO2 in a humidified atmosphere as previously reported. […] As a negative control, HEK293T cells were mock-transfected with the empty expression vector. After a further 24 h of incubation, the HEK293T cells were washed with C1 buffer (130 mM NaCl, 5 mM KCl, 10 mM HEPES pH 7.4 and 2 mM CaCl2). The 96-well plates containing the cells were then stimulated with sweet-tasting compounds. […] Different concentration ranges were tested depending on the sweet compound injected. The Ca^2+ changes were expressed as fractional changes in fluorescent light intensity: ΔF/F = (F − F0)/F0, where F was the fluorescent light intensity at each point, and F0 was the value of emitted fluorescent light prior to stimulus application. To calculate dose–response relationships, the changes in fluorescence upon stimulus application were averaged, mock-subtracted and baseline-corrected. The dose–response data obtained were adjusted using a 4-parameter logistic equation. The half-maximal effective concentrations (EC50 values) and maximal signal amplitudes were calculated using SigmaPlot software (version 15.0) (Systat Software; San Jose, CA, USA).
For in vitro calcium mobilisation assay performed on hTAS1R2-SNPs, hTAS1R3-SNPs and mTAS1R3-I60T, 6 to 7 concentrations were tested for each sweet compound, plus buffer alone. All concentration–receptor combinations were measured in duplicate, and each experiment was repeated at least 4 times (8 wells/concentration). Results were expressed for each concentration as ΔF/F mean ± SEM and represented as dose–response curves.

EC50 [µM] | R1 = Variant EC50/WT EC50 | Max ΔF/F0 | Molecule
54 ± 5 | 0.6 | 0.69 ± 0.02 | OC[C@H]1O[C@H](O[C@]2(CCl)O[C@H](CCl)[C@@H](O)[C@@H]2O)[C@H](O)[C@@H](O)[C@H]1Cl [Sucralose]
– | 1.1 | 1.19 ± 0.03 | brazzein (QDKCKKVYENYPVSKCQLANQCNYDCKLDKHARSGECFYDEKRNLQCICDYCEY; ends and bridges not checked; cysteine pairing not given here; UniProt P56552 1-54, looked up) [sweet-tasting protein obtained by recombinant production using the yeast Pichia pastoris]
– | 1.4 | 1.21 ± 0.02 | thaumatin
10.5 ± 0.3 | – | – | thaumatin (protein, Eight disulfides, sweet-tasting plant protein, E957) ATFEIVNRCSYTVWAAASKGDAALDAGGRQLNSGESWTINVEPGTKGGKIWARTDCYFDDSGSGICKTGDCGGLLRCKRFGRPPTTLAEFSLNQYGKDYIDISNIKGFNVPMDFSPTTRGCRGVRCAADIVGQCPAKLKAPGGGCNDACTVFQTSEYCCTTGKCGPTEYSRFFKRLCPDAFSYVLDKPTTVTCPGSSNYRVTFCPTA

Further lines, the molecule ahead of its results:

Molecule | EC50 [µM] | R1 = Variant EC50/WT EC50 | Max ΔF/F0
CC1=CC(=O)NS(=O)(=O)O1 [Acesulfame K, acesulfame K] | 778 ± 108 | 1.1 | 0.46 ± 0.03
O=S(=O)(O)NC1CCCCC1 [Cyclamate, cyclamate] | 1880 ± 36 | – | –
C[C@H](CC[C@@H](O[C@@H]1O[C@H](CO[C@@H]2O[C@H](CO)[C@@H](O)[C@H](O)[C@H]2O)[C@@H](O)[C@H](O)[C@H]1O[C@@H]1O[C@H](CO)[C@@H](O)[C@H](O)[C@H]1O)C(C)(C)O)[C@H]1CC[C@@]2(C)[C@@H]3CC=C4[C@@H](CC[C@H](O[C@@H]5O[C@H](CO[C@@H]6O[C@H](CO)[C@@H](O)[C@H](O)[C@H]6O)[C@@H](O)[C@H](O)[C@H]5O)C4(C)C)[C@]3(C)[C@H](O)C[C@]12C [Mogroside V, mogroside V] | 20.1 ± 0.9 | 1.2 | 1.39 ± 0.02
COc1ccc(CCC(=O)c2c(O)cc(O[C@@H]3O[C@H](CO)[C@@H](O)[C@H](O)[C@H]3O[C@@H]3O[C@@H](C)[C@H](O)[C@@H](O)[C@H]3O)cc2O)cc1O [NHDC, neohesperidin dihydrochalcone] | 92.6 ± 5.2 | 1.2 | 0.92 ± 0.02
COC(=O)[C@H](Cc1ccccc1)NC(=O)[C@H](CC(=O)O)NCCC(C)(C)C [Neotame] | 0.71 ± 0.06 | 0.8 | 0.61 ± 0.01
C=C(C)[C@@H]1CC=C(/C=N/O)CC1 [Perillartine, perillartine] | 17.7 ± 1.2 | 1.0 | 1.49 ± 0.04
C=C1C[C@@]23CC[C@H]4[C@@](C)(CCC[C@@]4(C)C(=O)O[C@@H]4O[C@H](CO)[C@@H](O)[C@H](O[C@@H]5O[C@H](CO)[C@@H](O)[C@H](O)[C@H]5O)[C@H]4O[C@@H]4O[C@H](CO)[C@@H](O)[C@H](O)[C@H]4O)[C@@H]2CC[C@]1(O[C@@H]1O[C@H](CO)[C@@H](O)[C@H](O[C@@H]2O[C@H](CO)[C@@H](O)[C@H](O)[C@H]2O)[C@H]1O[C@@H]1O[C@H](CO)[C@@H](O)[C@H](O)[C@H]1O)C3 [Rebaudioside M, rebaudioside M] | 17.6 ± 0.6 | 1.0 | 1.20 ± 0.01
